{"source": "patent US10542754B2", "about": "“Synergistic effect of spinetoram and methoxyfenozide for control of stem borer on rice” (Dow AgroSciences LLC, priority 2014, dated 2020)", "test_system": "striped stem borer (SSB)", "test": "Laboratory bioassay, rice stem dipping method, against striped stem borer on rice", "conditions": "for Numbers of Dead SSB: four replicates", "from_the_text": "Cotoxicity Coefficient (CTC) value was used to determine an existence of synergic effect between spinetoram and methoxyfenozide in the formulated pesticidal composition.\nThe CTC value of the formulated composition was used to determine the biological responses to the treatment: additive, synergism, or antagonism. The CTC value of more than 120 indicates a synergistic effect between the combined pesticidal compounds. The CTC value of about 80 to 120 indicates an additive effect between the combined pesticidal compounds. The CTC value of less than 80 indicates antagonistic effect between the combined pesticidal compounds\nPesticidal compositions were prepared by thoroughly mixing spinetoram and methoxyfenozide at various weight ratios as shown in TABLE 3.\nThe effectiveness of the pesticidal compositions for controlling of striped stem borer on rice was determined using laboratory bioassays, and compared to those of three controls. In the first control, only spinetoram was used for the treatment. In the second control, only methoxyfenozide was used for the treatment. In the third control, no pesticide was used.\nThe rice stem dipping method based on Standard Method for Bioassay Test (Chinese Standard Method NY/T1154.4-2006: Continuous Immersion Test for Insecticide Systemic Activity) was used to conduct the laboratory bioassays.\nFive stems of rice were dipped into the solutions of pestidical compositions for 10 seconds and then taken out for drying in the air. The treated stems were placed into glass tubes. Treatment with water, solvent, and emulsifier alone was used as reference check. There were four replicates for each treatment. About 10±1 larvae of third-instar striped stem borer were placed into each glass tube. The openings of the tubes were covered with gauze. Laboratory bioassays were conducted at room temperature. The number of dead larvae was recorded at 72 hours following the treatment.", "key": {"[1]": {"conditions": "Chilo suppressalis, in Oryza sativa, 72 h"}}, "data": [{"compound": "COc1cccc(C(=O)NN(C(=O)c2cc(C)cc(C)c2)C(C)(C)C)c1C", "note": "[Methoxyfenozide, methoxyfenozide]", "values": [{"measurement": "LC50", "setting": "[1]", "result": 21.1, "unit": "µg/mL"}, {"measurement": "mortality at 2.5 µg/mL", "setting": "[1]", "result": 4.77, "unit": "%"}, {"measurement": "mortality at 5 µg/mL", "setting": "[1]", "result": 13.6, "unit": "%"}, {"measurement": "mortality at 10 µg/mL", "setting": "[1]", "result": 28.4, "unit": "%"}, {"measurement": "mortality at 20 µg/mL", "setting": "[1]", "result": 43.9, "unit": "%"}, {"measurement": "mortality at 40 µg/mL", "setting": "[1]", "result": 67.5, "unit": "%"}, {"measurement": "mortality at 80 µg/mL", "setting": "[1]", "result": 87.5, "unit": "%"}, {"measurement": "Numbers of Dead SSB", "setting": "mass concentration 2.5 mg/L, 72 hours", "result": 0.5}, {"measurement": "Numbers of Dead SSB", "setting": "mass concentration 5 mg/L, 72 hours", "result": 1.5}, {"measurement": "Numbers of Dead SSB", "setting": "mass concentration 10 mg/L, 72 hours", "result": 3}, {"measurement": "Numbers of Dead SSB", "setting": "mass concentration 20 mg/L, 72 hours", "result": 7}, {"measurement": "Numbers of Dead SSB", "setting": "mass concentration 40 mg/L, 72 hours", "result": 6.75}, {"measurement": "Numbers of Dead SSB", "setting": "mass concentration 80 mg/L, 72 hours", "result": 8.75}, {"measurement": "LC90", "setting": "third-instar larvae, 72 hours", "result": 107.74, "unit": "µg/mL"}]}, {"compound": "spinetoram", "values": [{"measurement": "Numbers of Dead SSB", "setting": "mass concentration 0.125 mg/L, 72 hours", "result": 0.5}, {"measurement": "Mortality (%)", "setting": "mass concentration 0.125 mg/L, third-instar larvae, 72 hours", "result": 4.55, "unit": "%"}, {"measurement": "Numbers of Dead SSB", "setting": "mass concentration 0.25 mg/L, 72 hours", "result": 2}, {"measurement": "Mortality (%)", "setting": "mass concentration 0.25 mg/L, third-instar larvae, 72 hours", "result": 18.41, "unit": "%"}, {"measurement": "Numbers of Dead SSB", "setting": "mass concentration 0.5 mg/L, 72 hours", "result": 4}, {"measurement": "Mortality (%)", "setting": "mass concentration 0.5 mg/L, third-instar larvae, 72 hours", "result": 37.73, "unit": "%"}, {"measurement": "Numbers of Dead SSB", "setting": "mass concentration 1 mg/L, 72 hours", "result": 6.75}, {"measurement": "Mortality (%)", "setting": "mass concentration 1 mg/L, third-instar larvae, 72 hours", "result": 64.09, "unit": "%"}, {"measurement": "Numbers of Dead SSB", "setting": "mass concentration 2 mg/L, 72 hours", "result": 8.5}, {"measurement": "Mortality (%)", "setting": "mass concentration 2 mg/L, third-instar larvae, 72 hours", "result": 81.14, "unit": "%"}, {"measurement": "Numbers of Dead SSB", "setting": "mass concentration 4 mg/L, 72 hours", "result": 9.75}, {"measurement": "Mortality (%)", "setting": "mass concentration 4 mg/L, third-instar larvae, 72 hours", "result": 95.23, "unit": "%"}, {"measurement": "LC50", "setting": "third-instar larvae, 72 hours", "result": 0.71, "unit": "µg/mL"}, {"measurement": "LC90", "setting": "third-instar larvae, 72 hours", "result": 2.76, "unit": "µg/mL"}]}]}
